We go through 1 compound from patent publication US8884023B2, “Pyrano [3,2-D][1,3]thiazole as glycosidase inhibitors” (priority 2011, dated 2014).

Molecules are shown by their SMILES.

One assay concerns the target T1, O-GlcNAcase (UniProt Q8VIJ5).
T1 sequence (Q8VIJ5 1-916): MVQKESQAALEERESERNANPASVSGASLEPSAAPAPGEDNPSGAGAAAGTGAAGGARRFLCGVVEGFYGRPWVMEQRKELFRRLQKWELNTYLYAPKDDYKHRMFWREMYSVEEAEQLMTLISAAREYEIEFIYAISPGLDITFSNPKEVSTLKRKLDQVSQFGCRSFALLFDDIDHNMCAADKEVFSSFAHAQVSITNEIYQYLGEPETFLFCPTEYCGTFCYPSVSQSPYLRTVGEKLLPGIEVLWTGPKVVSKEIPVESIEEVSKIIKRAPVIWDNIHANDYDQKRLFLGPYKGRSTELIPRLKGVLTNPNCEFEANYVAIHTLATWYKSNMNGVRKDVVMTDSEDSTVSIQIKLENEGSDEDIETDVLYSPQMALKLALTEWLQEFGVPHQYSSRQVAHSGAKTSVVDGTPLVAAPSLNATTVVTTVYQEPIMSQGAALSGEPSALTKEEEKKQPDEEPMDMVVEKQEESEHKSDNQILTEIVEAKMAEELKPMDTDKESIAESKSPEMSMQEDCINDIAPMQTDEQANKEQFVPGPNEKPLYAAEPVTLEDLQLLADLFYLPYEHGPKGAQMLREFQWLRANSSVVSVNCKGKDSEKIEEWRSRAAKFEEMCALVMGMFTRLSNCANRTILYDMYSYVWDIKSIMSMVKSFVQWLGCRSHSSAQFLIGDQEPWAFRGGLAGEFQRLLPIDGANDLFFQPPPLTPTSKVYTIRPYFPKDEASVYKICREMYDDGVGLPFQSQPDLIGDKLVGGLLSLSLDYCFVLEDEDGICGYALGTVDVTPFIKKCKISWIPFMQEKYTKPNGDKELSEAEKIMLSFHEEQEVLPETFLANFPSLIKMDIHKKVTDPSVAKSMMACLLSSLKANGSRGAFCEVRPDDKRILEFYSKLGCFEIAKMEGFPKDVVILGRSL
Type of assay: cell-based. Particulars: cells expressing endogenous O-GlcNAcase (such as rat B35, rat PC-12, human SH-SY5Y), approximately 16 hours treatment; read-out: OGA cellular inhibition (EC50).

Assay [1] concerns the target T2, His-Tagged hOGA (human O-GlcNAcase) (Homo sapiens, UniProt O60502).
T2 sequence (O60502 1-916): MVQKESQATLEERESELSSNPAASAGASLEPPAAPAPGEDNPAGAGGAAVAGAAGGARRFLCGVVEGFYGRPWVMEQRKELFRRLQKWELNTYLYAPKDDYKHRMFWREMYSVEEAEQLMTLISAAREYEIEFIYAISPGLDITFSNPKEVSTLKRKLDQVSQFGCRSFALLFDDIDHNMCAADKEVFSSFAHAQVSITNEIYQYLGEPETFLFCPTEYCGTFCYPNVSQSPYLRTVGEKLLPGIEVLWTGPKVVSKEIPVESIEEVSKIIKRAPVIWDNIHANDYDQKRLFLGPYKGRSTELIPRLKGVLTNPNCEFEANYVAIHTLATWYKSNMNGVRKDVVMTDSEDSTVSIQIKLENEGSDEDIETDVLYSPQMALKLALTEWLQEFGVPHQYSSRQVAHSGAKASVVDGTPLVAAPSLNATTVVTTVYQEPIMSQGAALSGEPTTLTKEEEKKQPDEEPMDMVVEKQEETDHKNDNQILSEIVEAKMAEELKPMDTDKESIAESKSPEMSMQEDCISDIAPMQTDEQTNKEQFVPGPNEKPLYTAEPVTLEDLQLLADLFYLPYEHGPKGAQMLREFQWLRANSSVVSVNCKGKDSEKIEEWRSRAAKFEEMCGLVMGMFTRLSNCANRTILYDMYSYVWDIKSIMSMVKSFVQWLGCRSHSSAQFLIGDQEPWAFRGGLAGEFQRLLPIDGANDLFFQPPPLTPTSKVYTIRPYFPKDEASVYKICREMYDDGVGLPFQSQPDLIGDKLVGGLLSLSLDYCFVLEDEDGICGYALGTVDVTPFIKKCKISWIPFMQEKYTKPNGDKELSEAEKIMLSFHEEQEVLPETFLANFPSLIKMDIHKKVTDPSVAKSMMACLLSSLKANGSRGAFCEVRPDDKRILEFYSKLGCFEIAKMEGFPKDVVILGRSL
In words: biochemical.

As a reminder, the EC50 is the concentration at which the effect is half-maximal. What is called IC50 is the concentration that inhibits the measured activity by half. Low readings indicate greater potency, high ones weaker potency.

For `CCNC1=N[C@@H]2[C@@H](O)[C@H](O)[C@@H](Cn3cc(Cc4ccccc4)nn3)O[C@@H]2S1` [compound no. 14, (3aR,5R,6S,7R,7aR)-5-[(4-benzyl-1H-1,2,3-triazol-1-yl)methyl]-2-(ethylamino)-5,6,7,7a-tetrahydro-3aH-pyrano[3,2-d][1,3]thiazole-6,7-diol], on O-GlcNAcase, the EC50 is 100 to 500 nM. Further, the IC50 in assay [1] is under 100 nM.
